Data as given in ChEMBL document CHEMBL1137263, “Replacing the cyclohexene-linker of FR181157 leading to novel IP receptor agonists: orally active prostacyclin mimetics. Part 6” (Bioorg Med Chem Lett, 2006).

Key:
Prostacyclin receptor = Prostacyclin receptor (Homo sapiens, UniProt P43119); test: Displacement of [3H]iloprost from cloned human PGI2 receptor
[1] = Oral bioavailability in rat; assay type: ADME, organism-based; settings: in vivo
[2] = AUC in rat at 1 mg/kg, po; assay type: ADME, organism-based; parameters: dose 1 mg/kg, route oral; settings: plasma
[3] = Cmax in rat at 1 mg/kg, po; assay type: ADME, organism-based; parameters: dose 1 mg/kg, route oral; settings: in vivo

Chain of Prostacyclin receptor (P43119 whole entry): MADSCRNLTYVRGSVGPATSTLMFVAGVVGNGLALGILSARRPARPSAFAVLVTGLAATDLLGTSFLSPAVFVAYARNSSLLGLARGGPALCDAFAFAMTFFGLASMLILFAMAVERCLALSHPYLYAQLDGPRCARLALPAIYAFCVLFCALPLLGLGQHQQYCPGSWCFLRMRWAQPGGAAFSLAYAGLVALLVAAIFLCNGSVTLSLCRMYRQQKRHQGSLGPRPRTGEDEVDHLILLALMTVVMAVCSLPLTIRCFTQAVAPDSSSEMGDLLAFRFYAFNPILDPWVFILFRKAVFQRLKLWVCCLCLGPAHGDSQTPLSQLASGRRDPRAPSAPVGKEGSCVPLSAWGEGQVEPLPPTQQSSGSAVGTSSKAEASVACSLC

Compound	Ki (Prostacyclin receptor)	bioavailability [1]	AUC [2]	Cmax [3]
O=C([O-])COc1cccc(C[C@@H]2CCCC=C2c2nc(-c3ccccc3)c(-c3ccccc3)o2)c1.[Na+]	0.06 µM	50%		
O=C(O)COc1cccc(CN2CCC[C@@H]2c2nc(-c3ccccc3)c(-c3ccccc3)o2)c1	0.076 µM			
Cl.O=C(O)COc1cccc(CN2CCC[C@@H]2c2nc(-c3ccccc3)c(-c3ccccc3)o2)c1		41%	0.0817 µg·h/mL	0.0155 µg/mL
